The record followed here is BindingDB's records for patent US20250108123 (Jacobio Pharmaceuticals, 2025).

Some results are limits rather than exact numbers.

This assay has as its target Stimulator of interferon genes protein (Homo sapiens, UniProt Q86WV6). The assay is described as follows: Human STING WT Binding Assay. The procedure: Cisbio Bioassays' human STING WT binding assay (#64BDSTGPEG & 64BDSTGPEH, Cisbio) is for quantitative measurement of human STING WT ligand using HTRF technology.1. Adding CompoundsNegative control: Dispense 5 μL of diluent into each negative control well. Standard: Dispense 5 μL of each Human STING WT Standard 2′3′-cGAMP (Std 0-Std 7) into each standard well. Compound: Dispense 5 μL of compound into each compound well.2. Adding ProteinsNegative control: Add 5 μL of detection buffer to all wells. Other wells: Add 5 μL of human STING WT protein 6His-tagged protein to all wells.3. Adding AntibodiesAdd 10 μL of premixed STING WT ligand d2 reagent and 6His Tb antibody working solution to all wells.4. RT IncubationSeal the plate and incubate 3 hours at RT or at Over Night if necessary.5. Reading PlateRemove the plate sealer and read on an HTRF compatible reader (PerkinElmer, USA). Results were analyzed with a two-wavelength signal ratio: intensity (665 nm)/intensity (620 nm).6.

Stimulator of interferon genes protein, sequence (Q86WV6 whole entry): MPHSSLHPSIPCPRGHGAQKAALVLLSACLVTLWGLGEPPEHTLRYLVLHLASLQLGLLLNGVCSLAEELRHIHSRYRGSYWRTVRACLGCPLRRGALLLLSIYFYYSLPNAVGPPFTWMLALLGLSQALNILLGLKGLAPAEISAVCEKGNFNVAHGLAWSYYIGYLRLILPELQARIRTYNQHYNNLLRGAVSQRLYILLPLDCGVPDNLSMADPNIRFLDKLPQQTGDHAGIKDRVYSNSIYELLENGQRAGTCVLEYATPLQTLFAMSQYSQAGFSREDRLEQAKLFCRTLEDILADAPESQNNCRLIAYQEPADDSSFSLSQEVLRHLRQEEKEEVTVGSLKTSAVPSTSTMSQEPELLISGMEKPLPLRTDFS

`COC1C=C2CN(C(=O)CCC(=O)O)CC2=CC1OCCCOC1C=C2CN(C(=O)CCC(=O)O)CC2=CC1OC` (stereo unspecified) [US20250108123, Example I-1] showed an IC50 below 0.1 nM.

In general, IC50 refers to the midpoint of a concentration-inhibition curve. A higher IC50 goes with weaker potency in that assay.
